Here are results for eleven molecules from PubChem BioAssay (NCI).

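Values below derive from 48-hour exposures of cells grown in 96-well plates, with endpoints linearly interpolated between the two concentrations bracketing the appropriate inhibition level. TGI: total growth inhibition.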

The test system of one experiment is NCI-H23 lung. In words: DTP human tumour cell line panel, 48 h.
For `CC(=O)CCCCC(=O)Nc1ccc(CC(NC(=O)OC(C)(C)C)C(=O)NCC(=O)OCc2ccccc2)cc1` (stereo not given), the TGI is 76.6 µM.

A further experiment relates to M14 melanoma. Description: DTP human tumour cell line panel, 48 h.
For `CC(=O)OCOC(=O)CN(CC(=O)OCOC(C)=O)Cc1cc2c(cc1OC(C)=O)Oc1cc(OC(C)=O)c(CN(CC(=O)OCOC(C)=O)CC(=O)OCOC(C)=O)cc1C21OC(=O)c2ccccc21`, the TGI turned out to be 3.68 µM.

`NC(=O)c1cc2cc(Cl)cc(Cl)c2oc1=Nc1ccc(F)cc1`: the TGI stood at 45.5 µM.

`COc1ccc2nc(-n3c(/C=C/c4ccccc4O)nc4ccccc4c3=O)sc2c1` came in with a TGI of more than 100 µM.

Turning to `O=CC(=C(I)I)c1ccccc1`, the TGI was determined as 4.6 µM.

`O=C1C=C2C(=NC34CCCCC3C(c3ccccc3)C3=C(c5ccccc5CC3)N24)c2ccccc21` (stereo not given) showed a TGI of more than 10 µM.

Turning to `O=[N+]([O-])C(C(Cl)=C(Cl)Cl)=C(N(Cc1ccccc1)Cc1ccccc1)N(Cc1ccccc1)Cc1ccccc1`, the TGI was more than 100 µM.

For `CCCC1(NC(=O)C(F)(F)F)CC(OC)OC2COC(c3ccccc3)OC21` (stereo not given), the total growth inhibition concentration (TGI) is more than 100 µM.

Regarding `CCC1NC(=O)C1NC(=O)OC` (stereo not given), the TGI is more than 100 µM.

Molecule `O=c1c2nn3c(=O)n(-c4ccccc4)c(=O)c3nn2c(=O)n1-c1ccccc1` registered a TGI of more than 100 µM.

`COC(=O)C1=CC2CCCC1(O)C(C(C)=O)C2` (stereo not given): the TGI is more than 100 µM.

The molecule `CC(=O)CCCCC(=O)Nc1ccc(CC(NC(=O)OC(C)(C)C)C(=O)NCC(=O)OCc2ccccc2)cc1` (stereo not given) yielded a TGI of 55.2 µM.

Another experiment deals with HOP-62 NSCLC. In words: DTP human tumour cell line panel, 48 h.
`CC(=O)OCOC(=O)CN(CC(=O)OCOC(C)=O)Cc1cc2c(cc1OC(C)=O)Oc1cc(OC(C)=O)c(CN(CC(=O)OCOC(C)=O)CC(=O)OCOC(C)=O)cc1C21OC(=O)c2ccccc21` displayed a TGI of 3.48 µM.

In turn, `NC(=O)c1cc2cc(Cl)cc(Cl)c2oc1=Nc1ccc(F)cc1` showed a TGI of more than 100 µM.

In turn, `COc1ccc2nc(-n3c(/C=C/c4ccccc4O)nc4ccccc4c3=O)sc2c1` showed a TGI of more than 100 µM.

As for `O=CC(=C(I)I)c1ccccc1`, the TGI was 19.5 µM.

`O=C1C=C2C(=NC34CCCCC3C(c3ccccc3)C3=C(c5ccccc5CC3)N24)c2ccccc21` (stereo not given): the TGI was more than 10 µM.

`O=[N+]([O-])C(C(Cl)=C(Cl)Cl)=C(N(Cc1ccccc1)Cc1ccccc1)N(Cc1ccccc1)Cc1ccccc1` came in with a TGI of more than 100 µM.

The molecule `CCCC1(NC(=O)C(F)(F)F)CC(OC)OC2COC(c3ccccc3)OC21` (stereo not given) yielded a TGI of more than 100 µM.

`CCC1NC(=O)C1NC(=O)OC` (stereo not given): the TGI is more than 100 µM.

For the molecule `O=c1c2nn3c(=O)n(-c4ccccc4)c(=O)c3nn2c(=O)n1-c1ccccc1`, the TGI was more than 100 µM.

On to `COC(=O)C1=CC2CCCC1(O)C(C(C)=O)C2` (stereo not given), for which the TGI was more than 100 µM.

In turn, `CC(=O)CCCCC(=O)Nc1ccc(CC(NC(=O)OC(C)(C)C)C(=O)NCC(=O)OCc2ccccc2)cc1` (stereo not given) registered a TGI of 26.8 µM.

The next experiment concerns SW-620 colon. Description: DTP human tumour cell line panel, 48 h.
On to `CC(=O)OCOC(=O)CN(CC(=O)OCOC(C)=O)Cc1cc2c(cc1OC(C)=O)Oc1cc(OC(C)=O)c(CN(CC(=O)OCOC(C)=O)CC(=O)OCOC(C)=O)cc1C21OC(=O)c2ccccc21`, for which the TGI is 3.64 µM.

In turn, `NC(=O)c1cc2cc(Cl)cc(Cl)c2oc1=Nc1ccc(F)cc1` had a TGI of more than 100 µM.

As for `COc1ccc2nc(-n3c(/C=C/c4ccccc4O)nc4ccccc4c3=O)sc2c1`, the TGI was more than 100 µM.

In turn, `O=CC(=C(I)I)c1ccccc1` gave a TGI of 2.17 µM. In other words, the single-digit micromolar range.

Molecule `O=C1C=C2C(=NC34CCCCC3C(c3ccccc3)C3=C(c5ccccc5CC3)N24)c2ccccc21` (stereo not given) yielded a TGI of more than 10 µM.

Consider `O=[N+]([O-])C(C(Cl)=C(Cl)Cl)=C(N(Cc1ccccc1)Cc1ccccc1)N(Cc1ccccc1)Cc1ccccc1`, for which the TGI is more than 100 µM.

Turning to `CCCC1(NC(=O)C(F)(F)F)CC(OC)OC2COC(c3ccccc3)OC21` (stereo not given), the TGI is more than 100 µM.

The molecule `CCC1NC(=O)C1NC(=O)OC` (stereo not given) yielded a TGI of more than 100 µM.

As for `O=c1c2nn3c(=O)n(-c4ccccc4)c(=O)c3nn2c(=O)n1-c1ccccc1`, the TGI is more than 100 µM.

`COC(=O)C1=CC2CCCC1(O)C(C(C)=O)C2` (stereo not given) returned a concentration for total growth inhibition (TGI) of more than 100 µM.

Consider `CC(=O)CCCCC(=O)Nc1ccc(CC(NC(=O)OC(C)(C)C)C(=O)NCC(=O)OCc2ccccc2)cc1` (stereo not given), for which the TGI was 33 µM.

The next experiment deals with ACHN renal. Description: DTP human tumour cell line panel, 48 h.
`CC(=O)OCOC(=O)CN(CC(=O)OCOC(C)=O)Cc1cc2c(cc1OC(C)=O)Oc1cc(OC(C)=O)c(CN(CC(=O)OCOC(C)=O)CC(=O)OCOC(C)=O)cc1C21OC(=O)c2ccccc21` came in with a TGI of 4.02 µM.

In the case of `NC(=O)c1cc2cc(Cl)cc(Cl)c2oc1=Nc1ccc(F)cc1`, the TGI turned out to be 41.8 µM.

In the case of `COc1ccc2nc(-n3c(/C=C/c4ccccc4O)nc4ccccc4c3=O)sc2c1`, the TGI was more than 100 µM.

Regarding `O=CC(=C(I)I)c1ccccc1`, the TGI is 8.8 µM.

`O=C1C=C2C(=NC34CCCCC3C(c3ccccc3)C3=C(c5ccccc5CC3)N24)c2ccccc21` (stereo not given) came in with a TGI of more than 10 µM.

The molecule `O=[N+]([O-])C(C(Cl)=C(Cl)Cl)=C(N(Cc1ccccc1)Cc1ccccc1)N(Cc1ccccc1)Cc1ccccc1` gave a TGI of more than 100 µM.

`CCCC1(NC(=O)C(F)(F)F)CC(OC)OC2COC(c3ccccc3)OC21` (stereo not given) gave a TGI of more than 100 µM.

On to `CCC1NC(=O)C1NC(=O)OC` (stereo not given), for which the total growth inhibition concentration (TGI) is more than 100 µM.

Regarding `O=c1c2nn3c(=O)n(-c4ccccc4)c(=O)c3nn2c(=O)n1-c1ccccc1`, the TGI is more than 100 µM.

`COC(=O)C1=CC2CCCC1(O)C(C(C)=O)C2` (stereo not given) yielded a TGI of more than 100 µM.

`CC(=O)CCCCC(=O)Nc1ccc(CC(NC(=O)OC(C)(C)C)C(=O)NCC(=O)OCc2ccccc2)cc1` (stereo not given) returned a TGI of more than 100 µM.

A further experiment deals with HL-60(TB) leukemia. Description: DTP human tumour cell line panel, 48 h.
In the case of `CC(=O)OCOC(=O)CN(CC(=O)OCOC(C)=O)Cc1cc2c(cc1OC(C)=O)Oc1cc(OC(C)=O)c(CN(CC(=O)OCOC(C)=O)CC(=O)OCOC(C)=O)cc1C21OC(=O)c2ccccc21`, the TGI is 0.0289 µM.

On to `NC(=O)c1cc2cc(Cl)cc(Cl)c2oc1=Nc1ccc(F)cc1`, for which the TGI was more than 100 µM.

Take `COc1ccc2nc(-n3c(/C=C/c4ccccc4O)nc4ccccc4c3=O)sc2c1`: the TGI was more than 100 µM.

`O=CC(=C(I)I)c1ccccc1` showed a TGI of 0.275 µM.

In turn, `O=C1C=C2C(=NC34CCCCC3C(c3ccccc3)C3=C(c5ccccc5CC3)N24)c2ccccc21` (stereo not given) displayed a TGI of more than 10 µM.

`O=[N+]([O-])C(C(Cl)=C(Cl)Cl)=C(N(Cc1ccccc1)Cc1ccccc1)N(Cc1ccccc1)Cc1ccccc1` registered a total growth inhibition concentration (TGI) of 78 µM.

`CCCC1(NC(=O)C(F)(F)F)CC(OC)OC2COC(c3ccccc3)OC21` (stereo not given) came in with a total growth inhibition concentration (TGI) of 95.3 µM.

The molecule `CCC1NC(=O)C1NC(=O)OC` (stereo not given) gave a total growth inhibition concentration (TGI) of more than 100 µM.

On to `O=c1c2nn3c(=O)n(-c4ccccc4)c(=O)c3nn2c(=O)n1-c1ccccc1`, for which the TGI was more than 100 µM.

`COC(=O)C1=CC2CCCC1(O)C(C(C)=O)C2` (stereo not given): the TGI was found to be 47.8 µM. That is a double-digit micromolar value.
